# Experimental data as given in US5665738A, “Imidazole derivatives and processes for the preparation thereof” (Korea Research Institute of Chemical Technology, priority 1994, dated 1997).
# Tested on: angiotensin II receptor
# Assay: Angiotensin II receptor binding assay ([3H] angiotensin II displacement)
# Conditions: 60 minutes at 25° C., pH 7.2, test concentration not given
# Experimental: The inventive compounds were tested to measure their angiotensin II receptor binding capacity as follows.
# 1. Angiotensin II receptor binding assay
# In accordance with the procedure disclosed in Chiu, A. T. et al., Eur. J. Pharm., 157, 13 ([…])t a ligand marked with a radioistope was reacted with an angiotensin II receptor and the reactant was filtered with a glass fiber to remove unreacted ligand. After washing the filter, the amount of the remaining isotope was measured to determine the binding activity of the ligand, as described below in detail.
# (i) Isolation of angiotensin II receptor
# Sprague-Dawley rats and Wistar rats of 250 to 350 g (from The Korea Research Institute of Chemical Technology) were tested and the test procedures were carried out at 4° C., unless otherwise specified. Adrenal gland was separated from the Sprague-Dawley rats (liver, in the case of Wistar rats) into cortex and medulla. The separated adrenal cortex and medulla were washed with a sucrose buffer solution (0.2M sucrose, 1 mM EDTA, 10 mM Tris, pH 7.2) and homogenized in the same buffer solution by using a Teflon pestle and a Brinkmann homogenizer. The homogenates were centrifuged at 3,000× g for 10 minutes to remove precipitates and further centrifuged at 12,000× g for 13 minutes. The final supernatants were centrifuged at 102,000× g for 1 hour to obtain precipitates, which were washed with a Tris buffer solution (50 mM Tris, 5 mM MgCl2, pH 7.2) and re-centrifuged at 102,000× g for 1 hour. The resulting precipitates were immediately processed at the following step or stored at -70° C.
# The precipitates were suspended in a Tris buffer solution. The amount of protein was determined by using a Bio-Rad DC protein analyzing kit and the protein concentration was adjusted to the amounts of: 0.2 to 0.3 mg/ml (Sprague-Dawley rat: adrenal cortex), 1.5 to 2.0 mg/ml (Sprague-Dawley rat: adrenal medulla), and 1.5 to 2.0 mg/ml (Wistar rat: liver). To the suspension, bovine serum albumin (BSA) was added to a concentration of 0.25 wt % and the resultant was immediately processed at the following step or stored at -70° C.
# (ii) Measurement of angiotensin II receptor binding capacity
# 50 μl (based on ligand) of [^3 H] angiotensin II (NEN, NET-446) and 10 μl of each of the test compounds with various concentrations were added to the buffer solution (50 mM Tris (pH 7.2), 5 mM MgCl2, 0.25% BSA) to adjust the final volume to be 0.5 ml. Losartan (Dup 753), which is disclosed in EP No. 400,974 issued to Merck, was used as the control compound. 100 μl of the receptor suspension was added thereto and the resulting solution was reacted for 60 minutes while stirring in a water bath at 25° C. 3 ml of cold buffer solution for analysis was added to cease the reaction. The isotope which was bound to the receptor was isolated from the resultant by using Brandel Cell Harvester System with Whatman glass fiber GF/C. After washing the filter, the radioactivity of the filter was determined by using a liquid scintillation counter. Binding inhibition (%) of the test compound was calculated as follows:
# Binding Inhibition (%)=[{(T-B)-(S-B)}/(T-B)]×100
# wherein T is the radioactivity (cpm) of the reaction product untreated with the test compound, S is the radioactivity (cpm) of the reaction product treated with the test compound, and B is the radioactivity (cpm) of blank test.
row,Binding Inhibition (%),SMILES
1,68.9,"CCCCc1nc(Cl)c(C(=O)c2cccc(CO)n2)n1Cc1ccc(-c2ccccc2-c2nnn[nH]2)cc1 [Compound 8, {2-butyl-5-chloro-3-[(2'-(1H-tetrazol-5-yl)biphenyl-4-yl)methyl]-3H-imidazol-4-yl}[6-(hydroxymethyl)pyridin-2-yl]methanone]"
2,50.3,"CCCCc1nc(Cl)c(C(=O)c2cccc(Br)n2)n1Cc1ccc(-c2ccccc2-c2nnn[nH]2)cc1 [Compound 17, {2-butyl-5-chloro-3-[(2'-(1H-tetrazol-5-yl)biphenyl-4-yl)methyl]-3H-imidazol-4-yl}(6-bromopyridin-2-yl)methanone]"
3,78.9,CCCCc1nc(Cl)c(C(=O)c2ccc(CO)cn2)n1Cc1ccc(-c2ccccc2-c2nn[nH]n2)cc1 [Compound 28]
4,63.2,"CCCCc1nc(Cl)c(C(O)c2cccc(CN(CC)CC)n2)n1Cc1ccc(-c2ccccc2-c2nnn[nH]2)cc1 (centres unmarked) [Compound 12, {2-butyl-5-chloro-3-[(2'-(1H-tetrazol-5-yl)biphenyl-4-yl)methyl]-3H-imidazol-4-yl}[6-((diethylamino)methyl)pyridin-2-yl]methanol]"
5,99.9,"CCCCc1nc(Cl)c(C(=O)c2cccc(C[N+]([O-])(CC)CC)[n+]2[O-])n1Cc1ccc(-c2ccccc2-c2nn[nH]n2)cc1 [Compound 11, {2-butyl-5-chloro-3-[(2'-(1H-tetrazol-5-yl)biphenyl-4-yl)methyl]-3H-imidazol-4-yl}[6-((diethyl)(oxy)amino)methyl-1-oxypyridin-2-yl]methanone]"
6,91.1,"CCCCc1nc(Cl)c(C(=O)c2cccc(CN(CC)CC)[n+]2[O-])n1Cc1ccc(-c2ccccc2-c2nn[nH]n2)cc1 [Compound 10, {2-butyl-5-chloro-3-[(2'-(1H-tetrazol-5-yl)biphenyl-4-yl)methyl]-3H-imidazol-4-yl}[6-(diethylamino)methyl-1-oxypyridin-2-yl]methanone]"
7,88.7,"CCCCc1nc(Cl)c(C(=O)c2cccc(C(C)O)[n+]2[O-])n1Cc1ccc(-c2ccccc2-c2nn[nH]n2)cc1 (centres unmarked) [Compound 19, {2-butyl-5-chloro-3-[(2'-(1H-tetrazol-5-yl)biphenyl-4-yl)methyl]-3H-imidazol-4-yl}[6-(1-hydroxyethyl)-1-oxypyridin-2-yl]methanone]"
8,95.6,"CCCCc1nc(Cl)c(C(=O)c2ccc(CN(CC)CC)cn2)n1Cc1ccc(-c2ccccc2-c2nnn[nH]2)cc1 [Compound 34, {2-butyl-5-chloro-3-[(2'-(1H-tetrazol-5-yl)biphenyl-4-yl)methyl]-3H-imidazol-4-yl}[5-((diethylamino)methyl)pyridin-2-yl]methanone]"
9,92.1,"CCCCc1nc(Cl)c(C(=O)c2cccc(C[N+]([O-])(CC)CC)n2)n1Cc1ccc(-c2ccccc2-c2nn[nH]n2)cc1 [Compound 14, {2-butyl-5-chloro-3-[(2'-(1H-tetrazol-5-yl)biphenyl-4-yl)methyl]-3H-imidazol-4-yl}[6-[((diethyl)(oxy)amino)methyl]pyridin-2-yl]methanone]"
10,57.1,"CCCCc1nc(Cl)c(C(O)c2cccc(Br)n2)n1Cc1ccc(-c2ccccc2-c2nnn[nH]2)cc1 (centres unmarked) [Compound 18, {2-butyl-5-chloro-3-[(2'-(1H-tetrazol-5-yl)biphenyl-4-yl)methyl]-3H-imidazol-4-yl}(6-bromopyridin-2-yl)methanol]"
11,95.4,"CCCCc1nc(Cl)c(C(=O)c2cccc(C=NO)[n+]2[O-])n1Cc1ccc(-c2ccccc2-c2nn[nH]n2)cc1 [Compound 38, {2-butyl-5-chloro-3-[(2'-(1H-tetrazol-5-yl)biphenyl-4-yl)methyl]-3H-imidazol-4-yl}[6-(hydroxyimino)methyl-1-oxypyridin-2-yl]methanone]"
12,93.4,"CCCCc1nc(Cl)c(C(=O)c2ccc(C=O)c[n+]2[O-])n1Cc1ccc(-c2ccccc2-c2nn[nH]n2)cc1 [Compound 23, {2-butyl-5-chloro-3-[(2'-(1H-tetrazol-5-yl)biphenyl-4-yl)methyl]-3H-imidazol-4-yl}(5-formyl-1-oxypyridin-2-yl)methanone]"
13,88.6,"CCCCc1nc(Cl)c(C(=O)c2cccc(Br)[n+]2[O-])n1Cc1ccc(-c2ccccc2-c2nn[nH]n2)cc1 [Compound 15, {2-butyl-5-chloro-3-[(2'-(1H-tetrazol-5-yl)biphenyl-4-yl)methyl]-3H-imidazol-4-yl}(6-bromo-1-oxypyridin-2-yl)methanone]"
14,94.0,"CCCCc1nc(Cl)c(C(=O)c2ccc(C(OC)OC)cn2)n1Cc1ccc(-c2ccccc2-c2nnn[nH]2)cc1 [Compound 26, {2-butyl-5-chloro-3-[(2'-(1H-tetrazol-5-yl)biphenyl-4-yl)methyl]-3H-imidazol-4-yl}[5-(dimethoxymethyl)pyridin-2-yl]methanone]"
15,73.3,"CCCCc1nc(Cl)c(C(O)c2ccc(CN(CC)CC)cn2)n1Cc1ccc(-c2ccccc2-c2nnn[nH]2)cc1 (centres unmarked) [Compound 33, {2-butyl-5-chloro-3-[(2'-(1H-tetrazol-5-yl)biphenyl-4-yl)methyl]-3H-imidazol-4-yl}[5-((diethylamino)methyl)pyridin-2-yl]methanol]"
16,76.1,"CCCCc1nc(Cl)c(C(O)c2ccc(CO)c[n+]2[O-])n1Cc1ccc(-c2ccccc2-c2nn[nH]n2)cc1 (centres unmarked) [Compound 24, {2-butyl-5-chloro-3-[(2'-(1H-tetrazol-5-yl1)biphenyl1-4-yl)methyl1]-3H-imidazol-4-yl}(5-hydroxymethyl-1-oxypyridin-2-yl)methanol]"
17,81.3,"CCCCc1nc(Cl)c(C(=O)c2ccc(C=O)cn2)n1Cc1ccc(-c2ccccc2-c2nn[nH]n2)cc1 [Compound 27, {2-butyl-5-chloro-3-[(2'-(1H-tetrazol-5-yl1)biphenyl-4-yl)methyl]-3H-imidazol-4-yl}(5-formylpyridin-2-yl)methanone]"
18,48.0,"CCCCc1nc(Cl)c(CO)n1Cc1ccc(-c2ccccc2-c2nn[nH]n2)cc1 [Dup 753, Losartan, reference compound]"
19,90.2,"CCCCc1nc(Cl)c(C(O)c2ccc(CO)cn2)n1Cc1ccc(-c2ccccc2-c2nnn[nH]2)cc1 (centres unmarked) [Compound 30, {2-butyl-5-chloro-3-[(2'-(1H-tetrazol-5-yl)biphenyl-4-yl)methyl]-3H-imidazol-4-yl}[5-(hydroxymethyl)pyridin-2-yl]methanol]"
20,91.1,"CCCCc1nc(Cl)c(C(=O)c2cccc(C(OC)OC)[n+]2[O-])n1Cc1ccc(-c2ccccc2-c2nn[nH]n2)cc1 [Compound 1, {2-butyl-5-chloro-3-[(2'-(1H-tetrazol-5-yl)biphenyl-4-yl)methyl]-3H-imidazol-4-yl}[6-(dimethoxymethyl)-1-oxypyridin-2-yl]methanone]"
21,97.9,"CCCCc1nc(Cl)c(C(=O)c2ccc(C[N+]([O-])(CC)CC)cn2)n1Cc1ccc(-c2ccccc2-c2nn[nH]n2)cc1 [Compound 35, {2-butyl-5-chloro-3-[(2'-(1H-tetrazol-5-yl)biphenyl-4-yl)methyl]-3H-imidazo1-4-yl}{5-[((diethyl)(oxy)amino)methyl]pyridin-2-yl}methanone]"
22,87.8,"CCCCc1nc(Cl)c(C(O)c2ccc(C(OC)OC)cn2)n1Cc1ccc(-c2ccccc2-c2nnn[nH]2)cc1 (centres unmarked) [Compound 25, {2-butyl-5-chloro-3-[(2'-(1H-tetrazol-5-yl)biphenyl-4-yl)methyl]-3H-imidazol-4-yl}[5-(dimethoxymethyl)pyridin-2-yl]methanol]"
23,64.9,"CCCCc1nc(Cl)c(C(O)c2cccc(C=O)n2)n1Cc1ccc(-c2ccccc2-c2nnn[nH]2)cc1 (centres unmarked) [Compound 5, {2-butyl-5-chloro-3-[(2'-(1H-tetrazol-5-yl)biphenyl-4-yl)methyl]-3H-imidazol-4-yl}(6-formylpyridin-2-yl)methanol]"
